Legend:
RET V804L = RET V804L (Homo sapiens (Human), UniProt P07949, V804L); assay: RET V804L Gatekeeper Mutant Assay at KM (Caliper electrophoretic mobility shift); type: biochemical; conditions: 10 μM ATP (KM), read-out: V480L Mutant
wild type RET = wild type RET (Homo sapiens (Human), UniProt P07949); assay: RET Wild Type Assay at KM (Caliper electrophoretic mobility shift); type: biochemical; conditions: 25 μM ATP (KM)
Chain of wild type RET (P07949 29-1114): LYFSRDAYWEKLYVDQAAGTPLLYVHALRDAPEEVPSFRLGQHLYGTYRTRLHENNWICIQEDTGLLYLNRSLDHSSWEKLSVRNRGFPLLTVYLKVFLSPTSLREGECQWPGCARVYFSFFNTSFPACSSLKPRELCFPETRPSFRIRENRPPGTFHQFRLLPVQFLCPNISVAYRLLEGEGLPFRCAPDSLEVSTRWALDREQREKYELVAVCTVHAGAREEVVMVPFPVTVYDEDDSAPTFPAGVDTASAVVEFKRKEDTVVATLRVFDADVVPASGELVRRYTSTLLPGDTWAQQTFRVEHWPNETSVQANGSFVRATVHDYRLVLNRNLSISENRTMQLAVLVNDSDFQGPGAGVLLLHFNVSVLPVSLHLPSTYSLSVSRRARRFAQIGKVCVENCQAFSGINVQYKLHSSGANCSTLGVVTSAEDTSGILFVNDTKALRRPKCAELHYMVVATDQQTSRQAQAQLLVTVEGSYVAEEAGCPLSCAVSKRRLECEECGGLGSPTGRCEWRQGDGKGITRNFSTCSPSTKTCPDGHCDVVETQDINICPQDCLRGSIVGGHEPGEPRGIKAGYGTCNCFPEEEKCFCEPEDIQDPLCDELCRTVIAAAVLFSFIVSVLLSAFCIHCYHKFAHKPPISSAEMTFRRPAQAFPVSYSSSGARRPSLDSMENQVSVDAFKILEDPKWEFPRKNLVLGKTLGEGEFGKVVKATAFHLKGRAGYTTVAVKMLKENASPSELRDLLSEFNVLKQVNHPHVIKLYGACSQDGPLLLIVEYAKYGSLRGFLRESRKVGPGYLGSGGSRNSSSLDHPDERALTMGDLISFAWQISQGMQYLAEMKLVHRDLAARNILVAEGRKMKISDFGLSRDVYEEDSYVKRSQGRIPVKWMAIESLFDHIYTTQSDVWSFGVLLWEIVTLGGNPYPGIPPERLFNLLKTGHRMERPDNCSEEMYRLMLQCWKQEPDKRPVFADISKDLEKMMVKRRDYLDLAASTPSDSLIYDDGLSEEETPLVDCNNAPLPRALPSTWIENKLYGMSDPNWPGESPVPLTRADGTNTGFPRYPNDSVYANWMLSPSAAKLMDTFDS

Chain of RET V804L (P07949 29-1114 V804L): as the sequence (P07949 29-1114) above, with V776L counted along it

IC50 (RET V804L) | IC50 (wild type RET) | SMILES
< 10 nM | < 10 nM | CCC1(C(=O)NCc2ccc(-n3cccn3)nc2)CCN(c2nc(C)cc(Nc3cc(C)[nH]n3)n2)CC1 [Compound 158]
< 10 nM | < 10 nM | Cc1cc(Nc2cc(C)[nH]n2)nc(N2CC(C#N)(C(=O)N[C@@H](C)c3ccc(-n4cc(F)cn4)nc3)C2)n1 [Compound 159]
< 10 nM | < 10 nM | COC1(C(=O)NCc2ccc(-n3cccn3)nc2)CCN(c2cc(C)cc(Nc3cc(C)[nH]n3)n2)CC1 [Compound 160, N-((6-(1H-pyrazol-1-yl)pyridin-3-yl)methyl)-4-methoxy-1-(4-methyl-6-(3-methyl-1H-pyrazol-5-ylamino)pyridin-2-yl)piperidine-4-carboxamide]
< 10 nM | < 10 nM | COC1(C(=O)NCc2ccc(-n3cccn3)nc2)CCN(c2nc(C)cc(Nc3cc(C)[nH]n3)n2)CC1 [Compound 161, N-((6-(1H-pyrazol-1-yl)pyridin-3-yl)methyl)-4-methoxy-1-(4-methyl-6-((5-methyl-1H-pyrazol-3-yl)amino)pyrimidin-2-yl)piperidine-4-carboxamide]
< 10 nM | < 10 nM | Cc1cc(Nc2cc(C)[nH]n2)nc(N2CCC(O)(C(=O)N(C)Cc3ccc(-n4cccn4)nc3)CC2)n1 [Compound 162]
10 to 100 nM | 10 to 100 nM | COC1(C(=O)NCc2ccc(-n3nc(C)cc3C)nc2)CN(c2nc(C)cc(Nc3cc(C)[nH]n3)n2)C1 [Compound 163]
< 10 nM | < 10 nM | Cc1cc(Nc2cc(C)[nH]n2)nc(N2CCC(C(=O)N[C@@H](C)c3ccc(-n4cc(F)cn4)nc3)CC2)c1 [Compound 164]
< 10 nM | < 10 nM | Cc1cc(Nc2cc(C)c(C#N)c(N3CC(F)(C(=O)NCc4ccc(-n5cc(F)cn5)nc4)C3)n2)n[nH]1 [Compound 165]
< 10 nM | < 10 nM | CCC1(C(=O)N[C@@H](C)c2ccc(-n3cc(F)cn3)nc2)CN(c2nc(C)cc(Nc3cc(C)[nH]n3)n2)C1 [Compound 166, (S)-3-ethyl-N-(1-(6-(4-fluoro-1H-pyrazol-1-yl)pyridin-3-yl)ethyl)-1-(4-methyl-6-((5-methyl-1H-pyrazol-3-yl)amino)pyrimidin-2-yl)azetidine-3-carboxamide]
< 10 nM | < 10 nM | COC1(C(=O)N[C@@H](C)c2ccc(-n3cc(F)cn3)nc2)CN(c2cc(C)cc(Nc3cc(C)[nH]n3)n2)C1 [Compound 167]
< 10 nM | < 10 nM | COC1(C(=O)N[C@@H](C)c2ccc(-n3cccn3)nc2)CN(c2nc(Nc3cc(C)[nH]n3)cc(C)c2F)C1 [Compound 168]
< 10 nM | < 10 nM | COC1(C(=O)N[C@@H](C)c2ccc(-n3cc(F)cn3)nc2)CN(c2nc(C)cc(Nc3cc(C)[nH]n3)n2)C1 [Compound 169]
< 10 nM | < 10 nM | COC1(C(=O)N[C@@H](C)c2ccc(-n3cc(F)cn3)nc2)CN(c2cc(C)nc(Nc3cc(C)[nH]n3)n2)C1 [Compound 170]
< 10 nM | < 10 nM | Cc1cc(Nc2cc(C)c(F)c(N3CC(C(=O)N(C)[C@@H](C)c4ccc(-n5cc(F)cn5)nc4)C3)n2)n[nH]1 [Compound 171]
< 10 nM | < 10 nM | COC1(C(=O)NCc2ccc(-n3cc(Cl)cn3)nc2)CN(c2nc(C)cc(Nc3cc(C)[nH]n3)n2)C1 [Compound 172]
< 10 nM | < 10 nM | COC1(C(=O)NCc2ccc(-n3cccn3)nc2)CN(c2cc(C(F)F)cc(Nc3cc(C)[nH]n3)n2)C1 [Compound 173]
< 10 nM | < 10 nM | COC1(C(=O)NCc2ccc(-n3cc(F)cn3)nc2)CN(c2nc(Nc3cc(C)[nH]n3)cc(C)c2F)C1 [Compound 174]
< 10 nM | < 10 nM | COC1(C(=O)N[C@@H](C)c2ccc(-n3cccn3)nc2)CN(c2nc(Nc3cc(C)[nH]n3)cc(C)c2C#N)C1 [Compound 175]
10 to 100 nM | 10 to 100 nM | COC1(C(=O)NCc2ccc(N3CCC(F)(F)C3)nc2)CN(c2nc(C)cc(Nc3cc(C)[nH]n3)n2)C1 [Compound 176]
< 10 nM | < 10 nM | COC1(C(=O)NCc2ccc(-n3ccc(C4CC4)n3)nc2)CN(c2cc(C)cc(Nc3cc(C)[nH]n3)n2)C1 [Compound 177]
< 10 nM | < 10 nM | COC1(C(=O)NCc2ccc(-n3cc(C4CC4)cn3)nc2)CN(c2nc(C)cc(Nc3cc(C)[nH]n3)n2)C1 [Compound 178]
< 10 nM | < 10 nM | COC1(C(=O)NCc2ccc(-n3ccc(C4CC4)n3)nc2)CN(c2nc(C)cc(Nc3cc(C)[nH]n3)n2)C1 [Compound 179]
< 10 nM | < 10 nM | Cc1cc(Nc2cc(C(F)F)cc(N3CC(F)(C(=O)NCc4ccc(-n5cc(F)cn5)nc4)C3)n2)n[nH]1 [Compound 180]
< 10 nM | < 10 nM | COC1(C(=O)N[C@@H](C)c2ccc(-n3cccn3)nc2)CCN(c2cc(C)cc(Nc3cc(C)[nH]n3)n2)CC1 [Compound 181]
< 10 nM | < 10 nM | Cc1cc(Nc2cc(C)[nH]n2)nc(N2CCC(O)(C(=O)NCc3ccc(-n4nc(C)cc4C)nc3)CC2)c1 [Compound 182]
< 10 nM | < 10 nM | Cc1cc(Nc2cc(C(F)F)cc(N3CC(F)(C(=O)NCc4cnc(-n5cc(F)cn5)cn4)C3)n2)n[nH]1 [Compound 183]

IC50 (RET V804L) | IC50 (wild type RET) | SMILES
< 10 nM | < 10 nM | COC1(C(=O)NCc2ccc(-n3cc(F)cn3)nc2)CN(c2nc(Nc3cc(C)[nH]n3)cc(C)c2C#N)C1 [Compound 184]
< 10 nM | < 10 nM | COC1(C(=O)N(C)Cc2ccc(-n3cccn3)nc2)CCN(c2nc(C)cc(Nc3cc(C)[nH]n3)n2)CC1 [Compound 185]
< 10 nM | < 10 nM | COC1(C(=O)N[C@@H](C)c2ccc(-n3cccn3)nc2)CCN(c2nc(C)cc(Nc3cc(C)[nH]n3)n2)CC1 [Compound 186]
< 10 nM | < 10 nM | Cc1cc(Nc2cc(C)[nH]n2)nc(N2CCC(O)(C(=O)N(C)[C@@H](C)c3ccc(-n4cccn4)nc3)CC2)n1 [Compound 187]
< 10 nM | < 10 nM | Cc1cc(Nc2cc(C)[nH]n2)nc(N2CCC(C)(C(=O)N[C@@H](C)c3ccc(-n4cc(F)cn4)nc3)CC2)c1 [Compound 188]
< 10 nM | < 10 nM | Cc1cc(Nc2cc(C)c(C#N)c(N3CC(F)(C(=O)N[C@@H](C)c4ccc(-n5cc(F)cn5)nc4)C3)n2)n[nH]1 [Compound 189]
< 10 nM | < 10 nM | CCC1(C(=O)NCc2ccc(-n3cc(F)cn3)nc2)CCN(c2nc(C)cc(Nc3cc(C)[nH]n3)n2)CC1 [Compound 190]
< 10 nM | < 10 nM | Cc1cc(Nc2cc(C)[nH]n2)nc(N2CCC(C)(C(=O)N[C@@H](C)c3ccc(-n4cc(F)cn4)nc3)CC2)n1 [Compound 191]
< 10 nM | < 10 nM | Cc1cc(Nc2cc(C)[nH]n2)nc(N2CCC(O)(C(=O)N[C@@H](C)c3ccc(-n4cc(F)cn4)nc3)CC2)c1 [Compound 192]
< 10 nM | < 10 nM | COC1(C(=O)NCc2ccc(-n3cc(F)cn3)nc2)CCN(c2cc(C)cc(Nc3cc(C)[nH]n3)n2)CC1 [Compound 193]
< 10 nM | < 10 nM | CCOC1(C(=O)N[C@@H](C)c2ccc(-n3cc(F)cn3)nc2)CN(c2cc(C)cc(Nc3cc(C)[nH]n3)n2)C1 [Compound 194, (S)-3-ethoxy-N-(1-(6-(4-fluoro-1H-pyrazol-1-yl)pyridin-3-yl)ethyl)-1-(4-methyl-6-((5-methyl-1H-pyrazol-3-yl)amino)pyridin-2-yl)azetidine-3-carboxamide]
< 10 nM | < 10 nM | COC1(C(=O)NCc2ccc(-n3cc(F)cn3)nc2)CCN(c2nc(C)cc(Nc3cc(C)[nH]n3)n2)CC1 [Compound 195]
< 10 nM | < 10 nM | COC1(C(=O)N[C@@H](C)c2ccc(-n3cc(F)cn3)nc2)CCN(c2nccc(Nc3cc(C)[nH]n3)n2)CC1 [Compound 196]
< 10 nM | < 10 nM | CCOC1(C(=O)N[C@@H](C)c2ccc(-n3cc(F)cn3)nc2)CN(c2nc(C)cc(Nc3cc(C)[nH]n3)n2)C1 [Compound 197]
< 10 nM | < 10 nM | CO[C@@]1(C(=O)N[C@@H](C)c2ccc(-n3cc(F)cn3)nc2)CN(c2nc(C)cc(Nc3cc(C)[nH]n3)n2)[C@@H]1C [Compound 198]
< 10 nM | < 10 nM | CO[C@]1(C(=O)N[C@@H](C)c2ccc(-n3cc(F)cn3)nc2)CN(c2nc(C)cc(Nc3cc(C)[nH]n3)n2)[C@H]1C [Compound 199]
< 10 nM | < 10 nM | Cc1cc(Nc2cc(C)[nH]n2)nc(N2CCC(F)(C(=O)N[C@@H](C)c3ccc(-n4cc(F)cn4)nc3)CC2)c1 [Compound 200]
< 10 nM | < 10 nM | COC1(C(=O)N[C@@H](C)c2ccc(-n3cccn3)nc2)CN(c2cc(C(F)F)cc(Nc3cc(C)[nH]n3)n2)C1 [Compound 201]
< 10 nM | < 10 nM | COC1(C(=O)N[C@@H](C)c2ccc(-n3cc(F)cn3)nc2)CN(c2nc(Nc3cc(C)[nH]n3)cc(C)c2F)C1 [Compound 202]
10 to 100 nM | 10 to 100 nM | COC1(C(=O)NCc2ccc(-n3cc(C(F)F)cn3)nc2)CN(c2nc(C)cc(Nc3cc(C)[nH]n3)n2)C1 [Compound 203]
< 10 nM | 10 to 100 nM | COC1(C(=O)NCc2cnc(-n3ccc(C(F)F)n3)cn2)CN(c2nc(C)cc(Nc3cc(C)[nH]n3)n2)C1 [Compound 205]
< 10 nM | < 10 nM | Cc1cc(Nc2cc(C)[nH]n2)nc(N2CCC(CC#N)(C(=O)N[C@@H](C)c3ccc(-n4cccn4)nc3)CC2)n1 [Compound 206]
< 10 nM | < 10 nM | COC1(C(=O)NCc2ccc(-n3cccn3)nc2)CCN(c2nc(Nc3cc(C)[nH]n3)cc(C)c2C#N)CC1 [Compound 207]
< 10 nM | < 10 nM | COC1(C(=O)NCc2ccc(-n3cc(F)cn3)nc2)CN(c2cc(C(F)F)cc(Nc3cc(C)[nH]n3)n2)C1 [Compound 208]
< 10 nM | < 10 nM | CCC1(C(=O)NCc2ccc(-n3nc(C)cc3C)nc2)CCN(c2nc(C)cc(Nc3cc(C)[nH]n3)n2)CC1 [Compound 209]

Source: patent US10227329B2, “Compounds useful for treating disorders related to RET” (BLUEPRINT MEDICINES CORPORATION, priority 2016, dated 2019)
